In patent US10765696B2, “Compositions of and methods of treatment with zwitterionic polysaccharide” (City of Hope, priority 2015, dated 2020):

Columns and labels:
T and B cells = experiment: Immune cell analysis in uninfected WT mice during/after oral PSA treatment; type: in vivo, mouse
From the text: PSA increases IL-10 secreting T and B cells, as depicted in FIGS. 14A-14B.
Line plots showing CD39, CD73 and ICOS surface expression on CD4 and CD8 T cells isolated from mesenteric LN (MLN) of uninfected WT mice at indicated times during oral PSA treatment are depicted in FIGS. 16A-16B. FIG. 16A depicts CD4 T cells isolated from MLN of uninfected WT mice at indicated times during oral PSA treatment. FIG. 16B depicts CD8 T cells isolated from MLN of uninfected WT mice at indicated times during oral PSA treatment.

monocytes = experiment: Monocyte degranulation (CD107a/b), blood and spleen of treated HSV infected mice; conditions: monocytes from blood and spleen, day 6 post-infection
[1] = test system: DCs, PMNs, CD45+ intra-epithelial lymphocytes; experiment: Binding of fluorescent PSA to immune cells after oral gavage; type: in vivo, mouse; conditions: ileum of 129 WT or Rag mice
B cells = experiment: Splenic B cell phenotype in treated HSV infected mice; type: in vivo, mouse; conditions: six oral doses of PSA, ACV from day 4 pi, spleen day 6 pi
HSV-1 strain 17+ = experiment: HSV encephalitis (HSE) survival model, corneal scarification; type: in vivo, mouse
Experimental: 129S6 Wild Type (WT), 129 FoxP3-GFP and IL-10 knock-out (KO) mice were bred. Male and female mice aged 6-10 weeks were infected with HSV-1 strain 17+ (HSV).
Prophylactic administration: six doses of 50 μg of PSA in sterile PBS was given as indicated-orally (PO), or intra-peritoneally (IP) over 3 weeks prior to HSV infection. Additionally, six doses of PSA were given IP on 9 days before HSV infection, 6 days before HSV infection, 3 days before HSV infection, day 0 of HSV infection (i.e., on the day of infection), 2 days post-infection, and 4 days post-infection. Mice received either PBS or the anti-viral drug acyclovir (ACV) from day 4 to 10 post-infection at 50 mg/kg. Therapeutic administration: PSA was administered on days 1, 3 and 6 post HSV infection by PO, IP or intravenous injection (IV) along with ACV beginning day 4-10 post-infection (pi).
The post-infection therapeutic regimen included PSA administered day 1, day 3, day 6 post-infection, with ACV administered from day 4 post-infection. At day 4 post-HSV infection, 1.25 mg of ACV was given per mouse by IP injections daily for 7 days. […] 129 WT or Rag mice were given PSA as indicated in FIG. 3A prior to the infection. ACV was given starting at day 4 post-infection (FIG. 3B).

HSV 17+ strain = experiment: Flow cytometry of infiltrating leukocytes in brainstem (CNS inflammation) at day 6 pi
T cells = experiment: Flow cytometry of T cells (phenotype, tetramer, intracellular cytokines) from treated HSV infected mice

“Bacteroides fragilis (B. fragilis) capsular polysaccharide A (PSA)” was tested, and the “IL-10 secreting T and B cells” value (T and B cells; MLN and spleen of uninfected WT mice after 6 doses of oral PSA) was “increases”, the “accumulation of regulatory T cells (CD39, CD73, ICOS expression)” value (T and B cells; mesenteric lymph nodes of uninfected WT mice during oral PSA treatment) was “increases accumulation” and the “degranulation of monocytes following stimulation with HSV antigen” value (monocytes) was “limited degranulation”. The “spontaneous degranulation of monocytes” value (monocytes) was “reduced spontaneous degranulation”, the “IL-10 secretion from PSA stimulated CD45+ IEL” value [1] was “induce IL-10 secretion by CD45+ IEL T cells in wild type but not Rag mice” and the “splenic B cell phenotype (CD138)” value (B cells) was “the majority of B cells express a highly activated secretory plasmablast phenotype”. For the same molecule, the “survival of PSA treated B cell knockout mice or 129 Rag recipients of CD4 T cells, CD8 T cells or B cells” value (HSV-1 strain 17+; HSV 17+ strain, ACV from day 4 pi) was “B cells and T cells are essential for PSA mediated protection”, the “protection against HSV infection” value (HSV-1 strain 17+; PSA IP therapeutically day 1, day 3, day 6 with ACV from day 4 post-infection) was “also did not protect against HSV infection” and the “development of fatal HSE” value (HSV-1 strain 17+; mice pretreated with purified PSA prior to the HSV-1 infection, control PBS) was “prevented the development of fatal HSE”. The “protection against HSV infection” value (HSV-1 strain 17+; six doses of 50 μg PSA prior to and during infection (or day -8 to +4 regimen, or day 1, 3, 6 pi), ACV 1.25 mg IP daily for 7 days from day 4 pi) was “did not protect against HSV infection”, the “CNS inflammation (% CD45high infiltrates, Ly6Chigh CD11b+ inflammatory monocytes in brainstem)” value (HSV 17+ strain; 129 Rag mice, ACV from day 4 pi, brainstem day 6 pi) was “does not reduce CNS inflammation” and the “CNS inflammation (infiltrating leukocytes in brainstem)” value (HSV 17+ strain; 129 WT mice, ACV from day 4 pi, brainstem day 6 pi) was “reducing CNS inflammation”. For the same molecule, the “CD8+ in brainstem that were CD103+” value (HSV 17+ strain; 129 WT mice, brainstem) was “majority”, the “CD8+ virus specific based on tetramer staining” value (HSV 17+ strain; 129 WT mice, brainstem) was “Greater than 70%” and the “CD4+ ICOS+ T cells in the spleen” value (T cells; 129 WT mice, spleen) was 56%. The “CD4+ ICOS+ T cells that produced IL-10” value (T cells; PMA+ ionomycin stimulation) was “Approximately 10%”, the “phenotype of FoxP3 Tregs (CD25, CD103)” value (T cells; cervical lymph nodes, HSV infected WT mice, ACV from d4, day 6 pi) was “functional phenotype” and the “CD62Llow CD4 T cells that were ICOS+” value (T cells; oral PSA, blood and spleen, day 6 post-infection) was 56%. The “virus specific spleen CD8 T cells that were CD103+” value (T cells; six oral doses of PSA, ACV from day 4, spleen day 6 post-infection) was > 70%, the “CD4s that secrete IL-10 in response to stimulation” value (T cells; six oral doses of PSA, ACV from day 4, spleen day 6 post-infection, PMA+ionomycin) was “about 11%” and the “frequency of Tregs” value (T cells; spleen or BS) was “No change”.
For `Nc1nc2c(ncn2COCCO)c(=O)[nH]1` [ACV, acyclovir, reference compound], the “prevention of lethal HSV encephalitis (HSE)” value (HSV-1 strain 17+; 129 WT mice, ACV given at day 4 post infection) was “Cannot Prevent Lethal HSV Encephalitis (HSE)”.
